Experimental data published in PMC8956058, “Cembranolides and Related Constituents from the Soft Coral Sarcophyton cinereum” (Molecules, 2022).
Like-named read-outs stand apart in the source and are kept apart here.

Legend:
Format in all cases: cell-based
[1] = system: P388 cells (mouse lymphoma); experiment: Alamar Blue cytotoxicity / anti-proliferation assay, P388; conditions: triplicate, read-out: Anti-proliferation activities (IC50) P388
Method: (§1) The assay was implemented according to the published protocols. In brief, the Alamar Blue assay was performed for compounds 2–19 by treating them with P388, DLD-1, HuCC-T1, and CCD966SK cancer cells, which were commercially available from the American Type Culture Collection (ATCC). The test was performed in triplicate, and doxorubicin was used as a positive control.

[2] = system: CCD966SK cells (human skin fibroblast); experiment: Alamar Blue cytotoxicity / anti-proliferation assay, CCD966SK; conditions: triplicate, read-out: Anti-proliferation activities (IC50) CCD966SK
Method: as §1

[3] = system: DLD-1 cells (human colorectal adenocarcinoma); experiment: Alamar Blue cytotoxicity / anti-proliferation assay, DLD-1; conditions: triplicate, read-out: Anti-proliferation activities (IC50) DLD-1
Method: as §1

[4] = system: HuCCT-1 cells (human intrahepatic cholangiocarcinoma); experiment: Alamar Blue cytotoxicity / anti-proliferation assay, HuCCT-1; conditions: triplicate, read-out: Anti-proliferation activities (IC50) HuCCT-1
Method: as §1

[5] = Mus musculus, P388, P388 mouse lymphoma
[6] = Homo sapiens, DLD-1, DLD-1 human colorectal adenocarcinoma
[7] = Homo sapiens, HuCCT-1, HuCCT-1 human intrahepatic cholangiocarcinoma
[8] = DLD-1 human colorectal adenocarcinoma
[9] = HuCCT-1 human intrahepatic cholangiocarcinoma

Molecule | IC50 [1, 5] | IC50 ([2]; Homo sapiens, Skin fibroblast) | IC50 [3, 6] | IC50 [4, 7] | IC50 ([1]; P388 mouse lymphoma) | IC50 [2] | IC50 [3, 8] | IC50 [4, 9]
CC(C)C1(O)C=CC(C)(O)CCC(O)C2(C)CCC=C(CC1)C(=O)O2 (stereo not drawn) [Compound 2, Cinerenolide B] | > 30 µM | > 30 µM | > 30 µM | > 30 µM | – | – | – | –
CC(C)C1(O)C=CC(C)(O)CCC(O)C2(C)CCC=C(CC1)C(=O)O2 (stereo not drawn) [Compound 3, Cinerenolide C] | – | – | – | – | > 30 µM | > 30 µM | > 30 µM | > 30 µM
C=C1CC[C@H]2O[C@]2(C)CCC2=C(C)CO[C@H]2/C=C(\C)CC[C@@H]1OC(C)=O [Compound 4, sarcophytonoxide E] | > 30 µM | > 30 µM | > 30 µM | > 30 µM | – | – | – | –
CC1=C2CC[C@@]3(C)O[C@@H]3CC[C@@](C)(OO)/C=C/C/C(C)=C/[C@@H]2OC1=O [Compound 5, sarcomililatin A] | 15.2 ± 3.2 µM | > 30 µM | > 30 µM | > 30 µM | – | – | – | –
C=C1CC[C@H]2O[C@]2(C)CCC2=C(C)C(=O)O[C@H]2/C=C(\C)CC[C@H]1OO [Compound 6, sarcomililatin B] | 11.8 ± 4.6 µM | > 30 µM | > 30 µM | > 30 µM | – | – | – | –
CC1=CCCC2(C)OC2CCC(C)=CC=C(C(C)(C)O)CC1 (stereo not drawn) [Compound 7, 2-[(E,E,E)-7′,8′-epoxy-4′,8′,12′-trimethylcyclotetradeca-1′,3′,11′-trienyl]propan-2-ol] | > 30 µM | > 30 µM | > 30 µM | > 30 µM | – | – | – | –
C/C1=C\[C@H](O)CC2=C[C@@H](OC2=O)[C@H](C(C)C)CC/C(C)=C/CC1 [Compound 8, sarcophytonolide F] | > 30 µM | > 30 µM | > 30 µM | > 30 µM | – | – | – | –
CC1=C2CC[C@@]3(C)O[C@@H]3CC/C(C)=C/CC[C@@](C)(O)/C=C/2OC1=O [Compound 9, cherbonolide L] | > 30 µM | > 30 µM | > 30 µM | > 30 µM | – | – | – | –
CC1=C2CC[C@@]3(C)O[C@@H]3CC/C(C)=C/CC/C(C)=C/[C@@H]2OC1=O [Compound 10, (+)-(2S)-isosarcophine] | > 30 µM | > 30 µM | > 30 µM | > 30 µM | – | – | – | –
CC1=C2CC[C@@]3(C)O[C@@H]3CC/C(C)=C/CC/C(C)=C/[C@H]2OC1=O [Compound 11, (–)-(2R)-isosarcophine] | > 30 µM | > 30 µM | > 30 µM | > 30 µM | – | – | – | –
CC(=O)O[C@H]1/C=C(\C)CC[C@H]2O[C@]2(C)CCC2=C(C)CO[C@H]2/C=C(\C)C1 [Compound 12, sarcophytonoxide A] | > 30 µM | > 30 µM | > 30 µM | > 30 µM | – | – | – | –
CC(C)/C1=C/[C@@H](O)[C@]2(C)O[C@@H]2C[C@@H](O)[C@@]2(C)CCC=C(CC1)C(=O)O2 [Compound 13, sartrolide C] | > 30 µM | > 30 µM | > 30 µM | > 30 µM | – | – | – | –
COC(=O)/C1=C\C=C(\C(C)C)CCC2=CCC[C@](C)(OC2=O)C(=O)CC1 [Compound 14, ketoemblide] | > 30 µM | > 30 µM | > 30 µM | > 30 µM | – | – | – | –
CC(=O)OC1CC(C)=CCCC(C)=CC(=O)CC23C(=O)OC(C1C(C)C)C2CC(C)=C1CCC2=CCCC(C)(OC2=O)C(O)CCC(C)=CC13 (stereo not drawn) [Compound 16, glaucumolide A] | – | 21.3 ± 5.8 µM | – | – | 16.7 ± 5.8 µM | – | > 30 µM | 19.1 ± 6.4 µM
CC(=O)OC1CC(C)=CCCC(C)=CC(=O)CC23C(=O)OC(C1C(C)C)C2CC(C)=C1CCC2=CCCC(C)(OC2=O)C(O)CCC(C)=CC13 (stereo not drawn) [Compound 17, glaucumolide B] | – | – | – | – | 22.8 ± 9.7 µM | 26.1 ± 10.3 µM | > 30 µM | > 30 µM
CC(=O)OC1CC(C)=CCCC(C)=CC(=O)CC23C(=O)OC(C1C(C)C)C2CC(C)=C1CCC2=CCCC(C)(OC2=O)C(O)CCC(C)=CC13 (stereo not drawn) [Compound 18, bistrochelide A] | – | – | – | – | 10.6 ± 1.9 µM | 18.8 ± 6.9 µM | 9.9 ± 1 µM | 2 ± 0.1 µM
COc1cccc2c1C(=O)c1c(O)c3c(c(O)c1C2=O)C[C@@](O)(C(=O)CO)C[C@@H]3O[C@H]1C[C@H](N)[C@H](O)[C@H](C)O1 [Doxorubicin, doxorubicin, reference compound] | 0.69 ± 0.01 µM | 2.9 ± 0.4 µM | 4.1 ± 0.7 µM | 1.9 ± 0.1 µM | – | – | – | –
isosarcophytonolide D [Compound 15] | – | – | – | – | > 30 µM | 27.6 ± 7.8 µM | > 30 µM | > 30 µM
